The values below are quoted from earlier work in US20070077220A1, “Stable ascorbic acid compositions” (priority 2005, published 2007).

Take `O=C1O[C@H]([C@@H](O)CO)C(O)=C1O` [L-ascorbic acid]: the “pK (acid-ionizable hydrogen in water)” value is on record as 4.2.
